Like-named read-outs stand apart in the source and are kept apart here. Peptide text beside a SMILES is read from it.
Columns and labels:
δ opioid receptor = target: T1, δ opioid receptor (Rattus norvegicus, UniProt P33533); experiment: δ opioid receptor binding assay, displacement of δ-selective radioligand from rat brain membranes; conditions: for Ki^μ /Ki^δ: δ-selectivity ratio
T1 construct: Male Sprague-Dawley rats (300-350 g) from the Canadian Breeding Laboratories were decapitated and after removal of the cerebellum the brains were homogenized; from tissue; host or cells: rat brain (without cerebellum) membranes, male Sprague-Dawley
Excerpt: (§1) In the case of κ-ligands guinea pig brain homogenates were used, since the relative proportion of κ-binding sites is higher in guinea pig brain than in rat brain. The experimental procedure being used in our laboratory represents a modified version of the binding assay described by Pasternak et al. (Mol. Pharmacol. 11, 340-351, (1975)). Male Sprague-Dawley rats (300-350 g) from the Canadian Breeding Laboratories were decapitated and after removal of the cerebellum the brains were homogenized in 30 volumes of ice-cold standard buffer (50 mM Tris-HCl, pH 7.7). After centrifugation at 30,000×g for 30 min at 4° C. the membranes were reconstituted in the original volume of standard buffer and incubated for 30 min at 37° C. (to realease bound endogenous ligands). […] The incubation was terminated by filtration through Batman GF/B filters under vacuum at 4° C. Following two washings with 5 ml portions of ice-cold standard buffer the filters were transferred to scintillation vials and treated with 1 ml Protosol (New England Nuclear) for 30 min prior to the addition of 0.5 ml acetic acid and 10 ml Aquasol (New England Nuclear). After shaking for 30 min the vials were counted at an efficiency of 40-45%. All experiments were performed in duplicates and repeated at least three times. […] Values of half-maximal inhibition (IC50) of specific binding were obtained graphically from semilogarithmic plots. From the measured IC50-values, binding inhibition constants (Ki) were then calculated based on Cheng and Prusoff's equation (Biochem, Pharmacol. 22, 3099-3102 (1973)). Ratios of the Ki -values in the μ-, δ- and κ-representative binding assays are a measure of the receptor selectivety of the compound under investigation (e.g. Ki^μ /Ki^δ indicates the selectivity for δ-receptors versus μ-receptors).

μ opioid receptor = target: T2, μ opioid receptor (Rattus norvegicus, UniProt P33535); experiment: μ opioid receptor binding assay, displacement of [3H]DAMGO from rat brain membranes
T2 construct: Male Sprague-Dawley rats (300-350 g) from the Canadian Breeding Laboratories were decapitated and after removal of the cerebellum the brains were homogenized; from tissue; host or cells: rat brain (without cerebellum) membranes, male Sprague-Dawley
Excerpt: as §1

δ opioid receptors = target: T3, δ opioid receptors (Mus musculus, UniProt P32300); experiment: Mouse vas deferens (MVD) bioassay, antagonism of electrically evoked contraction inhibition by δ-selective agonists; format: tissue-based; conditions: MVD assay, means of 3-8 determinations
T3 construct: Bioassays Using Isolated Organ Preparations; from tissue; host or cells: mouse vas deferens (isolated organ)
Excerpt: a) Biosassys based on inhibition of electrically evoked contractions of the mouse vas deferens (MVD) and of the guinea pig ileum (GPI). In the GPI assay the opioid effect is primarily mediated by μ opioid receptors, whereas in the MVD assay the inhibition of the contractions is mostly due to interaction with δ opioid receptors.
The GPI and MVD bioassays were carded out as reported in P. W. Schiller et al., Biochem. Biophys. Res. Commun 85, 1332-1338 (1978) and J. Di Maio et al., J. Med. Chem. 25, 1432-1438 (1982). A log dose-response curve was determind with [Leu^5 ]enkephalin as standard for each ileum and vas preparation, and IC50 values of the compounds being tested were normalized according to A. A Waterfield et al., Eur. J. Pharmacol. 58, 11-18 (1979). […] These determinations were made with the MVD assay, using three different δ-selective agonists ([Leu^5 ] enkephalin, DPDPE and [D-Ala^2 ]deltorphin I].

[1] = rat brain membranes, means of 3 determinations, read-out: Ki^.xi.
[2] = rat brain membranes, means of 3 determinations, read-out: Ki^μ
[3] = Ke (nM) against DPDPE, δ agonist DPDPE
[4] = Ke (nM) against [D-Ala2]deltorphin I, δ agonist [D-Ala2]deltorphin I
[5] = Ke (nM) against [Leu5]Enkephalin, δ agonist [Leu5]enkephalin
[6] = δ agonist DPDPE, read-out: Ke (nM) against DPDPE
[7] = δ agonist [D-Ala2]deltorphin I, read-out: Ke (nM) against [D-Ala2]deltorphin I
[8] = δ agonist [Leu5]enkephalin, read-out: Ke (nM) against [Leu5]Enkephalin

T2 sequence (P33535 whole entry): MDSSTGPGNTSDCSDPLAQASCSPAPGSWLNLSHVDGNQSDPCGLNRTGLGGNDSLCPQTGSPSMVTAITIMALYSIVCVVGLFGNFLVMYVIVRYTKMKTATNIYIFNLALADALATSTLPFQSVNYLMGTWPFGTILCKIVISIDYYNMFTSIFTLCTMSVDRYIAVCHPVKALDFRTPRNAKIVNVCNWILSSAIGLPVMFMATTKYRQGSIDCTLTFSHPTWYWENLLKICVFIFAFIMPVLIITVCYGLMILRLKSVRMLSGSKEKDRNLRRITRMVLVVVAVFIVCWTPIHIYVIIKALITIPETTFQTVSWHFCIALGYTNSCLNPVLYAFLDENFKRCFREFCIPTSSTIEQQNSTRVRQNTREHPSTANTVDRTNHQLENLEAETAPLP
T1 sequence (P33533 whole entry): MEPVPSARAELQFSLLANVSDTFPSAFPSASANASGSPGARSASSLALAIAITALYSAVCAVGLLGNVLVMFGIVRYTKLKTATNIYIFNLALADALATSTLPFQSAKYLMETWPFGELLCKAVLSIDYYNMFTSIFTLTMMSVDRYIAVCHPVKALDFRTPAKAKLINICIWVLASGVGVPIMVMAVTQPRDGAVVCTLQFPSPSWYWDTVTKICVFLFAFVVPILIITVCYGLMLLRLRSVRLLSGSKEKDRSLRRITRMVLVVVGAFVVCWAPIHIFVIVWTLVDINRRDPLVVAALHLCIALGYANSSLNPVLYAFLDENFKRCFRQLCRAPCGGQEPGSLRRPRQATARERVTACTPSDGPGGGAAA
T3 sequence (P32300 whole entry): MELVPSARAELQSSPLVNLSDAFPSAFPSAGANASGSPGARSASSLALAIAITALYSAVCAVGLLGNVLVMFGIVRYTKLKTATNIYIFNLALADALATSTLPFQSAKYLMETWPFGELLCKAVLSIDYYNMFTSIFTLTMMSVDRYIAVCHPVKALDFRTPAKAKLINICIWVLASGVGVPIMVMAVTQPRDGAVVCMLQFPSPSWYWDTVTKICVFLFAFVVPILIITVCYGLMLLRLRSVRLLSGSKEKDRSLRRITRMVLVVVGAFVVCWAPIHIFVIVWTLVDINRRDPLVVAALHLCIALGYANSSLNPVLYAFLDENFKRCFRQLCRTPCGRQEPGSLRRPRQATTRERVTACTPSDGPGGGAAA

| Structure (SMILES) | Ki (δ opioid receptor; [1]) | Ki^μ /Ki^δ (δ opioid receptor) | Ki (μ opioid receptor; [2]) | Kb (δ opioid receptors; [3]) | Kb (δ opioid receptors; [4]) | Kb (δ opioid receptors; [5]) | Ki (δ opioid receptor) | Ki (μ opioid receptor) | Kb (δ opioid receptors; [6]) | Kb (δ opioid receptors; [7]) | Kb (δ opioid receptors; [8]) |
| --- | --- | --- | --- | --- | --- | --- | --- | --- | --- | --- | --- |
| N=C(N)NCCC[C@H](N)C(=O)N[C@@H](Cc1ccc(O)cc1)C(=O)N1Cc2ccccc2C[C@H]1C(=O)N[C@@H](Cc1ccccc1)C(=O)N[C@@H](Cc1ccccc1)C(N)=O [HArgTyrTicPhePheNH2, H-Arg-Tyr-Tic-Phe-Phe-NH2] (HELM PEPTIDE1{R.Y.[Tic].F.F.[am]}$$$$V2.0) | 4.79 nM | 22.3 | 107 ± 2 nM |  |  |  |  |  |  |  |  |
| Cc1cc(O)cc(C)c1C[C@H](N)C(=O)N1Cc2ccccc2C[C@H]1CN[C@@H](Cc1ccccc1)C(=O)N[C@@H](Cc1ccccc1)C(=O)O [HDmtTic.psi.[CH2NH]PhePheOH, H-Dmt-Tic.PSI.[CH2 --NH]Phe-Phe-OH] |  |  |  | 0.196 nM | 0.157 nM | 0.259 nM | 1.7 nM | 95.5 nM |  |  |  |
| N[C@@H](Cc1ccc(O)cc1)C(=O)N1Cc2ccccc2C[C@H]1C(=O)N[C@@H](Cc1cccc2ccccc12)C(=O)N[C@@H](Cc1ccccc1)C(=O)O [HTyrTic-1-NalPheOH, H-Tyr-Tic-1-Nal-Phe-OH] (HELM PEPTIDE1{Y.[Tic].[O=C([C@H](Cc1cccc2ccccc12)N[*:1])[*:2]].F}$$$$V2.0) |  | 982 |  |  |  |  | 1.14 nM | 1120 nM |  |  |  |
| N[C@@H](Cc1ccc(O)cc1)C(=O)N1Cc2ccccc2C[C@H]1C(=O)N[C@@H](Cc1ccc2ccccc2c1)C(=O)N[C@@H](Cc1ccccc1)C(=O)O [HTyrTic-2-NalPheOH, H-Tyr-Tic-2-Nal-Phe-OH] (HELM PEPTIDE1{Y.[Tic].[O=C([C@H](Cc1ccc2ccccc2c1)N[*:1])[*:2]].F}$$$$V2.0) |  | 4830 |  | 4.41 nM | 4.17 nM | 2.64 nM | 1.31 nM | 6330 nM |  |  |  |
| N[C@@H](Cc1ccc(O)cc1)C(=O)N1Cc2ccccc2C[C@H]1CN[C@@H](Cc1ccccc1)C(=O)O [HTyrTic-.psi.[CH2NH]PheOH, H-Tyr-Tic.PSI.[CH2 -NH]Phe-OH] | 1.94 nM |  | 10800 nM |  |  |  |  |  | 9.06 nM | 8.24 nM | 9.12 nM |
| CN(C[C@@H]1Cc2ccccc2CN1C(=O)[C@@H](N)Cc1ccc(O)cc1)[C@@H](Cc1ccccc1)C(=O)N[C@@H](Cc1ccccc1)C(=O)O [HTyrTic.psi.[CH2NCH3]PhePheOH, H-Tyr-Tic.PSI.[CH2 --NCH3 ]Phe-Phe-OH] | 0.842 nM |  | 13400 nM |  |  |  |  |  | 4.76 nM | 2.89 nM | 6.28 nM |
| N[C@@H](Cc1ccc(O)cc1)C(=O)N1Cc2ccccc2C[C@H]1C(=O)N[C@@H](CCc1ccccc1)C(=O)N[C@@H](Cc1ccccc1)C(=O)O [HTyrTicHfePheOH, H-Tyr-Tic-Hfe-Phe-OH] (HELM PEPTIDE1{Y.[Tic].[O=C([C@H](CCc1ccccc1)N[*:1])[*:2]].F}$$$$V2.0) |  | 7180 |  | 0.609 nM | 0.408 nM | 1.23 nM | 0.277 nM | 1990 nM |  |  |  |
| N[C@@H](Cc1ccc(O)cc1)C(=O)N1Cc2ccccc2C[C@H]1C(=O)N[C@@H](Cc1c[nH]cn1)C(=O)N[C@@H](Cc1ccccc1)C(=O)O [HTyrTicHisPheOH, H-Tyr-Tic-His-Phe-OH] (HELM PEPTIDE1{Y.[Tic].H.F}$$$$V2.0) |  | 11500 |  | 18.2 nM | 18.7 nM | 20.1 nM | 1.48 nM | 17000 nM |  |  |  |
| N[C@@H](Cc1ccc(O)cc1)C(=O)N1Cc2ccccc2C[C@H]1C(=O)N[C@@H](Cc1ccccc1)C(=O)O [HTyrTicPheOH, H-Tyr-Tic-Phe-OH] (HELM PEPTIDE1{Y.[Tic].F}$$$$V2.0) | 9.07 nM | 141 | 1280 nM | 16.1 nM | 12.6 nM | 11.7 nM |  |  |  |  |  |

— patent US5602099A, “δ opioid receptor antagonists” (Aktiebolaget Astra, priority 1993, dated 1997)
